Data: patent US20240335404A1, “SUBSTITUTED ESTERS CONTAINING POLYOLS AND SACCHARIDES FOR TREATING HEPATOTOXICITY AND FATTY LIVER DISEASES” (SINEW PHARMA INC., priority 2015, published 2024)

Tests used:
fatty liver = assay: High fat diet-induced fatty liver in B6 mice; type: in vivo; conditions: HFD mice; for GSH / Gpx / Grd / SOD: liver; for ALT / AST / TC in liver / TG in liver: administration period of 4 weeks; for liver TC / liver TG: 4 or 8 weeks; for ALT and AST values: compounds administered separately
Method: More than four mice were used in each group of the pre-test, while more than twelve mice were used in each group of the confirmatory test. […] The animal test was carried out according to the guideline for animal experiment of National Health Research Institutes. […] The weight of mice was recorded once a week. The tested animals were grouped randomly into Blank, High Fat Diet control (HFD), Positive Control (PS), and Test group. The animals of Blank were fed with normal feed. The animals of HFD were fed with high fat feed. […] The animals of Test group were fed with high fat feed, and additionally fed with test compounds by a tube. The animals of Blank were fed casually with normal feed for 12 weeks, while the animals of HFD, PS, and Test group were fed casually with high fat feed for 12 weeks. After 8 weeks of feeding, the animals of Blank and HFD were fed with deionized water by a tube once a day; the animals of PS were fed with silymarin by a tube once a day; and the animals of Test Group were fed with test compounds by a tube once a day for a duration of 4 or 8 weeks. Before testing and in the eighth, twelfth, and sixteenth week after testing, blood was collected from the cheek or the heart. At the end of testing, all mice were weighted and then sacrificed, and blood was collected from the cheek or the heart simultaneously. The blood specimens of mice rested at room temperature for one hour to clot, and then the serum was separated by centrifugation in a refrigeration centrifuge at 15,700×g at 4° C. for 5 minutes. Afterwards, biochemical indices of liver function, including aspartate transaminase (AST), alanine aminotransferase (ALT), triglyceride (TG), total cholesterol (TCHO/TC), low-density lipoprotein cholesterol (LDL-C), and high-density lipoprotein cholesterol (HDL-C), were detected by the automatic blood biochemistry analyzer. In addition, abdominal fat and liver specimens were taken from the abdomens of sacrificed mice and weighted to compare the weight of fat and liver and obtain the ratio of liver weight to body weight. […] The cut sections proceeded with H&E staining for histopathological observation. Moreover, the rest of the liver was frozen for preservation and detection of the contents of triglyceride and total cholesterol in the liver. Furthermore, the liver function of animals of each group were analyzed by Galactose Single Point Method, which was recognized and recommended for quantification of remaining liver function in clinical use by U.S. FDA and Ministry of Health and Welfare, Taiwan. […] One hour after the administration, about 0.5 ml of whole blood was taken by using a filter paper to evaluate liver function of mice. The higher the value of GSP was, the worse the remaining liver function would be. (FDA: “Guidance for Industry: Pharmacokinetics in Patients with Impaired. Hepatic Function-Study Design, Data Analysis and Impact on Dosing and. Labeling. 2003. At the end of the test, all mice were sacrificed. […] Afterwards, xylene was replaced with hot paraffin solution. At last, the tissue was embedded with paraffin solution. The finished paraffin specimen was cut into […] paraffin sections by the microtome. The sections were pasted on clean slides, dried at 37° C., and then stained by H&E staining. In order to observe the changes of lesion, fat accumulation, necrosis, or fibrosis in liver cells when there was an ongoing liver damage, liver tissues were H&E stained to evaluate the degree of liver fat accumulation. All the histopathological sections were cut from the same position on the largest right lobe of liver for eliminating bias in subjective observation, and then subject to pathological staining. As for the assessment of semi-quantitative analysis in pathology, it had to be confirmed by a physician or a veterinary pathologist who conducted a double-blind analysis to score (NAS score) and compare all the sections without knowing the test design. […]

CYP2E1 = CYP2E1 (Homo sapiens, UniProt P05181); assay: CYP2E1 inhibitory activity assay in human liver microsomes (CZX to 6-OH-CZX)
Method: After addition of the test sample, the amount of CYP450 isozyme metabolite standard 6-OH-CZX (6-Hydroxy-Chlorzoxazone) is specific used for calculation of the CYP450 isozyme (CYP2E1) inhibition ratio of the test sample by using the amount of 6-OH-CZX of the control group as the baseline.
All samples were tested in triplicate. To determine the percentage inhibition, each test compound was dissolved in 1, 2, 4 μg/mL to three different concentrations. The CYP2E1 activity levels in the presence of the test compounds were compared with the control incubations. The 500-μL reaction mixture, containing 0.5 mg of microsomal protein, was incubated with 320 μM CZX in the presence of 5 mM MgCl2 and 1 mM NADPH in 50 mM phosphate buffer with pH 7.4 at 37° C. for 30 min. The reaction was terminated by ice-cold acetonitrile, and then 4-hydroxyl tolbutamide was added as an internal standard. The organic phase was evaporated to dryness and reconstituted into the mobile phase (methanol:water=1:1) prior to liquid chromatography-tandem mass spectrometry (LC-MS/MS) analysis. An API 3000 triple-quadrupole mass spectrometer equipped with an ion-spray (ESI) source was used to determine 6-OH-CZX in the human liver microsomes. The ESI interface was used in the positive-ion mode. The 6-OH-CZX was monitored at a transition of m/z 284.5→185.9.
The CYP450 isozyme activity levels in the presence of the test compounds were compared with the control incubations.

[1] = 1.5 mg/kg, test period of 4 weeks
[2] = 4.5 mg/kg, test period of 4 weeks
[3] = 7.5 mg/kg, test period of 4 weeks

CYP2E1, sequence (P05181 whole entry): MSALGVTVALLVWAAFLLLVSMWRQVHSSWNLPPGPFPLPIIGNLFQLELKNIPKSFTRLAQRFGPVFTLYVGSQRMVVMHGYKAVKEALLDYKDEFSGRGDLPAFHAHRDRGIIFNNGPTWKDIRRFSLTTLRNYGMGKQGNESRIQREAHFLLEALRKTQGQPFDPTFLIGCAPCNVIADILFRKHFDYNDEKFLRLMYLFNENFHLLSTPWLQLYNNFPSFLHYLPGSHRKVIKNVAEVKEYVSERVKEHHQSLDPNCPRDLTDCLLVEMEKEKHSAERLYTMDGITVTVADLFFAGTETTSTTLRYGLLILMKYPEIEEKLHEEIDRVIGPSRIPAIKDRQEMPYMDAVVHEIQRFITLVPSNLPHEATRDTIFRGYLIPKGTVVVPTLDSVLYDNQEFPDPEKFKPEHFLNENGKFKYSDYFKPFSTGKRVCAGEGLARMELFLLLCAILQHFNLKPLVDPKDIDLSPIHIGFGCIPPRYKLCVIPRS

OC[C@@H](O)[C@@H](O)[C@H](O)[C@H](O)CO [Mannitol]
weight of abdominal fat (fatty liver): reduce the weight of abdominal fat in animals significantly | GSH (fatty liver; [1]): 1502.5 ± 276.9 U/L | Gpx (fatty liver; [1]): 2580.0 ± 555.2 U/L | Grd (fatty liver; [1]): 95.3 ± 22.1 U/L | SOD (fatty liver; [1]): 367.3 ± 35.6 U/L | GSH (fatty liver; [2]): 1605.1 ± 305.9 U/L | Gpx (fatty liver; [2]): 3423.3 ± 547.8 U/L | Grd (fatty liver; [2]): 110.1 ± 18.4 U/L | SOD (fatty liver; [2]): 429.2 ± 85.2 U/L | GSH (fatty liver; [3]): 2147.7 ± 459.1 U/L | Gpx (fatty liver; [3]): 3738.3 ± 665.1 U/L | Grd (fatty liver; [3]): 117.6 ± 32.0 U/L | SOD (fatty liver; [3]): 462.8 ± 52.8 U/L | Abdominal fat weight (fatty liver; 1.5 mg/kg): 2.0 ± 0.3 g | Increase of body weight (fatty liver; 1.5 mg/kg): 10.9 ± 7.4 g | Liver weight (fatty liver; 1.5 mg/kg): 1.4 ± 0.2 g | ALT (fatty liver; 1.5 mg/kg): 40.8 ± 11.4 U/L | AST (fatty liver; 1.5 mg/kg): 187.2 ± 142.1 U/L | TC in liver (fatty liver; 1.5 mg/kg): 3.4 ± 0.6 mg/g liver | TG in liver (fatty liver; 1.5 mg/kg): 61.8 ± 32.6 mg/g liver | Abdominal fat weight (fatty liver; 4.5 mg/kg): 2.7 ± 0.3 g | Increase of body weight (fatty liver; 4.5 mg/kg): 11.1 ± 7.7 g | Liver weight (fatty liver; 4.5 mg/kg): 1.4 ± 0.2 g | ALT (fatty liver; 4.5 mg/kg): 44.5 ± 15.9 U/L | AST (fatty liver; 4.5 mg/kg): 107.6 ± 54.3 U/L | TC in liver (fatty liver; 4.5 mg/kg): 7.2 ± 2.8 mg/g liver | TG in liver (fatty liver; 4.5 mg/kg): 71.5 ± 45.5 mg/g liver | Abdominal fat weight (fatty liver; 7.5 mg/kg): 2.4 ± 0.3 g | Increase of body weight (fatty liver; 7.5 mg/kg): 10.3 ± 8.5 g | Liver weight (fatty liver; 7.5 mg/kg): 1.4 ± 0.1 g | ALT (fatty liver; 7.5 mg/kg): 25.0 ± 10.8 U/L | AST (fatty liver; 7.5 mg/kg): 63.3 ± 7.7 U/L | TC in liver (fatty liver; 7.5 mg/kg): 4.7 ± 1.2 mg/g liver | TG in liver (fatty liver; 7.5 mg/kg): 53.8 ± 24.4 mg/g liver | NAS (fatty liver; [3]): 1.7 ± 0.8 mg/g liver | reduction in ALT value (fatty liver; 4-week treatment, p<0.005): about 64% | reduction in AST value (fatty liver; 4-week treatment, p<0.005): about 60% | liver TC (fatty liver): reduce TC in liver significantly | liver TG (fatty liver): reduce TG in liver significantly | liver antioxidant activity (fatty liver; 4 weeks): improve antioxidant activity significantly | liver damage, NAS (fatty liver; 4 weeks): reduce liver damage significantly | ALT and AST values (fatty liver): reduce ALT and AST values significantly | liver tissue sections, H&E (fatty liver; treated for 4 weeks, FIG. 5): large vesicular fat droplets within liver cells in liver tissue section were significantly reduced | P450 2E1 inhibitor activity (CYP2E1): effective as P450 2E1 inhibitors | CYP 2E1 inhibition ratio (%) (CYP2E1; 1 μg/mL): 30.1 ± 2.4% | CYP 2E1 inhibition ratio (%) (CYP2E1; 2 μg/mL): 34.1 ± 4.1% | CYP 2E1 inhibition ratio (%) (CYP2E1; 4 μg/mL): 40.3 ± 1.6%

OC[C@H]1O[C@H](O[C@]2(CCl)O[C@H](CCl)[C@@H](O)[C@@H]2O)[C@H](O)[C@@H](O)[C@H]1Cl [Sucralose]
weight of abdominal fat (fatty liver): reduce the weight of abdominal fat in animals significantly | GSH (fatty liver; [1]): 1448.0 ± 281.5 U/L | Gpx (fatty liver; [1]): 2995.0 ± 651.1 U/L | Grd (fatty liver; [1]): 100.0 ± 18.6 U/L | SOD (fatty liver; [1]): 373.0 ± 50.4 U/L | GSH (fatty liver; [3]): 1609.1 ± 201.1 U/L | Gpx (fatty liver; [3]): 3334.0 ± 377.7 U/L | Grd (fatty liver; [3]): 90.4 ± 17.2 U/L | SOD (fatty liver; [3]): 399.0 ± 34.5 U/L | Abdominal fat weight (fatty liver; 1.5 mg/kg): 2.1 ± 0.6 g | Increase of body weight (fatty liver; 1.5 mg/kg): 17.0 ± 5.6 g | Liver weight (fatty liver; 1.5 mg/kg): 1.5 ± 0.2 g | ALT (fatty liver; 1.5 mg/kg): 30.9 ± 16.8 U/L | AST (fatty liver; 1.5 mg/kg): 127.0 ± 31.2 U/L | TC in liver (fatty liver; 1.5 mg/kg): 3.0 ± 0.9 mg/g liver | TG in liver (fatty liver; 1.5 mg/kg): 68.9 ± 37.5 mg/g liver | Abdominal fat weight (fatty liver; 7.5 mg/kg): 2.4 ± 0.3 g | Increase of body weight (fatty liver; 7.5 mg/kg): 8.3 ± 5.4 g | Liver weight (fatty liver; 7.5 mg/kg): 1.4 ± 0.1 g | ALT (fatty liver; 7.5 mg/kg): 32.3 ± 10.1 U/L | AST (fatty liver; 7.5 mg/kg): 74.3 ± 18.6 U/L | TC in liver (fatty liver; 7.5 mg/kg): 5.0 ± 0.9 mg/g liver | TG in liver (fatty liver; 7.5 mg/kg): 56.8 ± 20.0 mg/g liver | liver TC (fatty liver): reduce TC in liver significantly | liver TG (fatty liver): reduce TG in liver significantly | liver antioxidant activity (fatty liver; 4 weeks): improve antioxidant activity significantly | ALT and AST values (fatty liver): reduce ALT and AST values significantly | P450 2E1 inhibitor activity (CYP2E1): effective as P450 2E1 inhibitors | CYP 2E1 inhibition ratio (%) (CYP2E1; 1 μg/mL): 25.1 ± 1.4% | CYP 2E1 inhibition ratio (%) (CYP2E1; 2 μg/mL): 30.2 ± 2.8% | CYP 2E1 inhibition ratio (%) (CYP2E1; 4 μg/mL): 32.9 ± 4.6%
